# Measured values as given in patent US20260241043A1, “Carrier Peptide Fragment and Use Thereof” (TOAGOSEI CO., LTD., priority 2022, published 2026).
# Primed or numbered codes have the meaning given here. FAM″ = C-terminal FAM dye
# Tested on: NSC-34 cells
# Assay: Evaluation on cell membrane permeability by flow cytometry
# Format: cell-based, mouse
# Conditions: 10 μM additive, 0.5% DMSO, 20 hours incubation at 37° C., fluorescence detector FL2
# Procedure: As the eukaryotic cells, NSC-34 cells (mouse motor neuron-like hybrid cell line) were used and the cell membrane permeability of the constructs 1 to 3 was analyzed. In Examples 1 to 3, the prepared samples 1 to 3 were used, respectively, and in Example 4, a FAM solution was used.
# The NSC-34 cells were cultured in 10% fetal bovine serum (FBS)-containing Dulbecco's modified Eagle's medium (DMEM (Cat No. 044-29765, manufactured by FUJIFILM Wako Pure Chemical Corporation)), which is a normal culture medium.
# The NSC-34 cells that adhered to a culture plate were cleaned with PBS and then, a 0.25%-trypsin/EDTA solution was added thereto, and incubation was performed for three minutes at 37° C. After the incubation, the aforementioned 10% FBS-containing DMEM was added to deactivate trypsin and then, five-minute centrifugal separation was performed at 150×g to precipitate the cells. After the supernatant generated by the centrifugal separation was removed, the 10% FBS-containing DMEM was added to the precipitate (cell pellet) to prepare a cell suspension of about 2× 10^5 cells/mL. The cell suspension was added by 1 mL to a well of a commercially available six-hole (well) plate (manufactured by AGC TECHNO GLASS Co., Ltd.) so as to seed the cell (about 2× 10^5 cells/well). In addition, the 2 mM sample solution 1 was diluted with the 10% FBS-containing DMEM to prepare the sample solution 1 in which the concentration of the sample 1 was 20 μM. […]
# Regarding the obtained cells (cell pellet), the cell membrane permeability of the sample 1 was analyzed using a flow cytometer. […]
# Using the aforementioned flow cytometer, gating based on forward scatter (FSC) and side scatter (SSC) was performed to set a gate about a cell group to be analyzed, and the fluorescence intensity was measured about the cell group in this gate. […] The fluorescence intensity was measured using a fluorescence detector FL2 of the flow cytometer (optimum detection wavelength around 543 nm) capable of detecting the fluorescence wavelength of FAM. […]
row,Substance,MFI (median fluorescence intensity)
1,"Ac-RKKRNSKRLTRKK-FAM (Ac-RKKRNSKRLTRKK-{FAM″}) [Example 1, N-terminally acetylated peptide 1 (all L-form) with FAM fluorescent dye bonded to the C-terminus]",14.6
2,Ac-RkkRNSkRLTRkk-FAM [Example 3],27.3
3,Ac-rKKrNSKrLTrKK-FAM [Example 2],37.7
